Experimental findings from ChEMBL document CHEMBL2046294, “Lipo-γ-AApeptides as a new class of potent and broad-spectrum antimicrobial agents” (J Med Chem, 2012) are described below.

In data set [1] the test system is Escherichia coli. Description: Antibacterial activity against Escherichia coli JM109 after 24 hrs by broth micro-dilution method. In kind it is functional. Particulars: JM109, 24 h. A general note: In broth dilution the organism is exposed to a series of concentrations in liquid medium.
A further data set concerns Klebsiella pneumoniae. Description: Antibacterial activity against Klebsiella pneumoniae ATCC 13383 after 24 hrs by broth micro-dilution method. It counts as functional. Particulars: ATCC 13383, 24 h.
For another data set, the system named is Pseudomonas aeruginosa. Nature of the data set: Antibacterial activity against multidrug-resistant Pseudomonas aeruginosa ATCC 27853 after 24 hrs by broth micro-dilution method. In kind it is functional. Particulars: ATCC 27853, 24 h.
Data set [2] concerns Bacillus subtilis. Nature of the data set: Antibacterial activity against Bacillus subtilis BR151 after 24 hrs by broth micro-dilution method. In kind it is functional. Particulars: BR151, 24 h.
Data set [3] deals with Staphylococcus epidermidis. Nature of the data set: Antibacterial activity against multidrug-resistant Staphylococcus epidermidis RP62A after 24 hrs by broth micro-dilution method. In kind it is functional.
Another data set relates to Enterococcus faecalis. Nature of the data set: Antibacterial activity against vancomycin-resistant Enterococcus faecalis ATCC 700802 after 24 hrs by broth micro-dilution method. In kind it is functional. Particulars: ATCC 700802, 24 h.
In data set [4] the test system is Staphylococcus aureus. Nature of the data set: Antibacterial activity against methicillin-resistant Staphylococcus aureus ATCC 33592 after 24 hrs by broth micro-dilution method. It counts as functional. Particulars: ATCC 33592, 24 h.
The test system of the next data set is Candida albicans. Description: Antifungal activity against Candida albicans ATCC 10231 after 48 hrs by broth micro-dilution method. Particulars: ATCC 10231, 48 h. In kind it is functional.
Data set [5] can be described thus: Toxicity in human RBC assessed as hemolysis after 1 hr. It counts as cell-based, Erythrocyte.
Data set [6] can be described thus: Selectivity ratio of HC50 for human RBC to MIC for methicillin-resistant Staphylococcus aureus ATCC 33592. In kind it is functional.
The test system of data set [7] is Escherichia coli. Description: Antibacterial activity against Escherichia coli JM109 assessed as membrane disruption at 10 ug/ml after 2 hrs by DAPI staining-based fluorescence microscopic analysis. In kind it is functional, organism-based.
The test system of data set [8] is Escherichia coli. Nature of the data set: Antibacterial activity against Escherichia coli JM109 assessed as membrane disruption at 10 ug/ml after 2 hrs by propidium iodide staining-based fluorescence microscopic analysis. It counts as functional, organism-based.
The subject of data set [9] is Bacillus subtilis. Description: Antibacterial activity against Bacillus subtilis BR151 assessed as membrane disruption at 10 ug/ml after 2 hrs by DAPI staining-based fluorescence microscopic analysis. In kind it is functional, organism-based.
The test system of data set [10] is Bacillus subtilis. Description: Antibacterial activity against Bacillus subtilis BR151 assessed as membrane disruption at 10 ug/ml after 2 hrs by propidium iodide staining-based fluorescence microscopic analysis. In kind it is functional, organism-based.
The subject of data set [11] is Escherichia coli. Nature of the data set: Antibacterial activity against Escherichia coli JM109 assessed as loss membrane potential at 10 ug/ml. In kind it is functional, organism-based.
Data set [12] concerns Bacillus subtilis. Description: Antibacterial activity against Bacillus subtilis BR151 assessed as loss membrane potential at 10 ug/ml. It counts as functional, organism-based.
Data set [13] has as its system Staphylococcus aureus. Nature of the data set: Antibacterial activity against methicillin-resistant Staphylococcus aureus ATCC 33592 assessed as lipid membrane depolarization after 10 mins by DiSC3-5 staining-based fluorescence analysis. In kind it is functional, organism-based.
Data set [14] deals with Staphylococcus aureus. Nature of the data set: Antibacterial activity against methicillin-resistant Staphylococcus aureus ATCC 33592 grown on half-MIC concentration for 17 passages measured after 17 days by broth-microdilution method. It counts as functional, organism-based.
Data set [15] relates to N2a. Description: Toxicity against mouse N2A cells expressing amyloid precursor protein up to 50 ug/ml after 36 hrs by MTT assay. In kind it is cell-based.
Data set [16] relates to N2a. Nature of the data set: Toxicity against mouse N2A cells expressing amyloid precursor protein up to 100 ug/ml after 36 hrs by MTT assay. It counts as cell-based.
Data set [17] is described as follows: Selectivity for Escherichia coli JM109 over mouse N2A cells expressing amyloid precursor protein.
Data set [18] in a line: Selectivity for Klebsiella pneumoniae ATCC 13383 over mouse N2A cells expressing amyloid precursor protein.
A short description of data set [19]: Selectivity for Bacillus subtilis BR151 over mouse N2A cells expressing amyloid precursor protein.

≈ marks a conversion by molar mass, not a printed value. Calls of active or inactive are those of the source. The calls are words filed in the database; no cut-off is given here.

On to `CCCCCCCCCCCCCCCC(=O)N[C@@H](C)CN(CC(=O)N[C@@H](C)CN(CC(=O)N[C@@H](CC(C)C)CN(CC(=O)N[C@@H](CC(C)C)CN(CC(=O)N[C@@H](CC(C)C)CN(CC(N)=O)C(=O)CCCN)C(=O)CCCN)C(=O)CCCN)C(C)=O)C(C)=O`, for which the minimal inhibitory concentration (MIC) (usually the lowest concentration found to suppress growth) stood at 2.5 µg/mL (≈ 1.94 µM) in the data set on Escherichia coli [1]; 5 µg/mL (≈ 3.87 µM) against Klebsiella pneumoniae; 5 µg/mL (≈ 3.87 µM) with Pseudomonas aeruginosa; 2.5 µg/mL (≈ 1.94 µM) against Bacillus subtilis [2]; 4 µg/mL (≈ 3.1 µM) in data set [3]; 5 µg/mL (≈ 3.87 µM) in the data set with Enterococcus faecalis. In addition, the minimal inhibitory concentration (MIC) is 4 µg/mL (≈ 3.1 µM) against Staphylococcus aureus [4] and 5 µg/mL (≈ 3.87 µM) with Candida albicans. Besides, the HC10 in data set [5] (erythrocyte, 1 h) was 60 µg/mL. Also, in data set [5] (red blood cells), the 50% haemolytic concentration (HC50) (commonly the concentration that lyses half of the red blood cells) at 1 h was more than 500 µg/mL. Also, the Ratio in [6] is more than 125; in data set [17] it was 10; in data set [18], 10; in data set [19], 10. Also, the result with Escherichia coli [7], with Escherichia coli [8], in the data set with Bacillus subtilis [9], with Bacillus subtilis [10], in the data set with Escherichia coli [11] and in the data set on Bacillus subtilis [12] was Active. In addition, the outcome with Staphylococcus aureus [13] and in the data set with Staphylococcus aureus [14] was Active. Also, the Activity result in the data set with N2a [15] is recorded as “Non-toxic”; in the data set on N2a [16], 50%.
